Experimental data published in ChEMBL document CHEMBL5523742 (J Med Chem, 2024).
Calls of active or inactive are those of the source. The rule behind the calls is not given here. Numbered stars: 1 amine (or outer) side, 2 acyl side, 3 side chain; on linkers, the order of the positions; unused ones are H or OH. Square brackets hold non-standard residues; d marks the D form. Side chains are listed from the residue outwards. Peptide text beside a SMILES is read from it. * marks the point of attachment. ξ: configuration not given here. C20 diacid = O=C(O)CCCCCCCCCCCCCCCCCCC(=O)*; γGlu = O=C(O)[C@H](CCC(=O)[*:2])N[*:1]; ξγGlu = O=C(O)C(CCC(=O)[*:2])N[*:1]; AEEA = NCCOCCOCC(=O)O; Aib = CC(C)(N)C(=O)O

What was measured:
[1] = species: Homo sapiens; assay: Selectivity index, ratio of EC50 for agonist activity human SCTR stably expressed in CHO-K1 cells assessed as […] in cAMP accumulation to EC50 for agonist activity human GLP-1R stably expressed in CHO-K1 cells assessed as […] in cAMP accumulation; type: cell-based
[2] = biological target: T1, Glucagon-like peptide 2 receptor (Homo sapiens) (UniProt O95838); assay: Activation of GLP-2R (unknown origin) upto 3000 nM
T1 sequence (whole entry): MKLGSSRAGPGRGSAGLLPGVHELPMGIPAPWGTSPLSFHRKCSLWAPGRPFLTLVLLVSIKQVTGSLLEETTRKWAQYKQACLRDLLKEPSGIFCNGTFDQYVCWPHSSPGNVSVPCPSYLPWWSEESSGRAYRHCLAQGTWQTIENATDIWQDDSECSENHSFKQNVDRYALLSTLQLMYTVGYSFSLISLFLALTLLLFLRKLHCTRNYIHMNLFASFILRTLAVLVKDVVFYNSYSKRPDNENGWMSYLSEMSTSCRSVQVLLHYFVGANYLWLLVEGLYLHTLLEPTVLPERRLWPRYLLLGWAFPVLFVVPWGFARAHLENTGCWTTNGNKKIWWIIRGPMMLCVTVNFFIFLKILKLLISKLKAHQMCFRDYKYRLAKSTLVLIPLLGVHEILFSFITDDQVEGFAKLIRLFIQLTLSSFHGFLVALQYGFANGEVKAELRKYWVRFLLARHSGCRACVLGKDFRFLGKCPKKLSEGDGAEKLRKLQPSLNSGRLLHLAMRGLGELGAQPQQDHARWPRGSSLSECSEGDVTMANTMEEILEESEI

[3] = test system: Mus musculus; assay: Protection against diet-induced obesity in sc dosed C57BL/6JRj mouse model assessed as reduction in food intake administered once daily for 28 days and measured after 2 to 3 days; type: functional, organism-based; conditions: dose 3-30 nmol/kg, time 28-31 day
[4] = test system: Mus musculus; assay: Protection against diet-induced obesity in C57BL/6JRj mouse model assessed as reduction in whole-body adipose tissue mass at 3 to 30 nmol/kg administered once daily for 28 days; type: functional, organism-based; conditions: dose 3-30 nmol/kg, time 28.0 day
[5] = biological target: Glucagon receptor (Homo sapiens) (UniProt P47871); assay: Activation of GCGR (unknown origin) upto 3000 nM
[6] = biological target: T2, Gastric inhibitory polypeptide receptor (Homo sapiens) (UniProt P48546); assay: Activation of GIPR (unknown origin) upto 3000 nM
T2 sequence (whole entry): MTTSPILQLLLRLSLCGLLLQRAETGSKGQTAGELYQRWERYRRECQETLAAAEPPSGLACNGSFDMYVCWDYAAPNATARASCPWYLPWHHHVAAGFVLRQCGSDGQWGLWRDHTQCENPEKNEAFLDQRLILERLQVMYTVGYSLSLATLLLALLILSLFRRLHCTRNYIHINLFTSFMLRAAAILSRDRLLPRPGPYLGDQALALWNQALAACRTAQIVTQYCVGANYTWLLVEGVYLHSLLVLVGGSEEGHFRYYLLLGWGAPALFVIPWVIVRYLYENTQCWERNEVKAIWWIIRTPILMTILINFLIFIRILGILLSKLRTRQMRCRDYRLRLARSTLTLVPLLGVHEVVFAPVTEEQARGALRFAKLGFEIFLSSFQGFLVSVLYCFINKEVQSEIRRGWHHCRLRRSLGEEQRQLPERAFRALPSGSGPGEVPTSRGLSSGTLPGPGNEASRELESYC

[7] = biological target: Secretin receptor (Homo sapiens, UniProt P47872); assay: Agonist activity human SCTR stably expressed in CHO-K1 cells assessed as […] in cAMP accumulation incubated for 30 mins by TR-FRET assay; type: functional, cell-based
[8] = biological target: Glucagon-like peptide 1 receptor (Homo sapiens, UniProt P43220); assay: Agonist activity human GLP-1R stably expressed in CHO-K1 cells assessed as […] in cAMP accumulation incubated for 30 mins by TR-FRET assay; type: functional, cell-based
[9] = Chemical stability of compound at pH 8 assessed as compound degradation; type: physicochemical; conditions: buffer; for degraded: read-out: Drug degradation
[10] = Chemical stability of compound at pH 7 assessed as compound degradation; type: physicochemical; conditions: buffer
[11] = Drug concentration in sc dosed C57BL/6JRj mouse plasma administered once daily for 28 days and measured after 24 hrs by LC-MS/MS analysis; type: ADME, organism-based; conditions: in vivo, 696 h, dose 3-30 nmol/kg, time 29 day
[12] = Toxicity in sc dosed C57BL/6JRj mouse model assessed as reduction in body weight administered once daily for 28 days; type: organism-based; conditions: in vivo, 672 h, dose 3-30 nmol/kg, time 28 day

Sequence of Secretin receptor (P47872 whole entry): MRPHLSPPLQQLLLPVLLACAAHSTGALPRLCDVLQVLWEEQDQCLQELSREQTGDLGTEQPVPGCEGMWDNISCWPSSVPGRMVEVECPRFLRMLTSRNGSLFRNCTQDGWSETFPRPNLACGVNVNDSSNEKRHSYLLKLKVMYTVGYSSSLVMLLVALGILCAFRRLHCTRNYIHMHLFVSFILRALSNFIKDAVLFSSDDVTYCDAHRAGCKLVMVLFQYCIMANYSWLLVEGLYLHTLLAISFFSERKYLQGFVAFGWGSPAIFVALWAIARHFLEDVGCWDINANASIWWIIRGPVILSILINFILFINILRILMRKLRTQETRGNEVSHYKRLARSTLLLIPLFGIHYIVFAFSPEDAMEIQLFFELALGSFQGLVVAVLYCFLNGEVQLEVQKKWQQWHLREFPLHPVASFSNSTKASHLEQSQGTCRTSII
Sequence of Glucagon-like peptide 1 receptor (P43220 whole entry): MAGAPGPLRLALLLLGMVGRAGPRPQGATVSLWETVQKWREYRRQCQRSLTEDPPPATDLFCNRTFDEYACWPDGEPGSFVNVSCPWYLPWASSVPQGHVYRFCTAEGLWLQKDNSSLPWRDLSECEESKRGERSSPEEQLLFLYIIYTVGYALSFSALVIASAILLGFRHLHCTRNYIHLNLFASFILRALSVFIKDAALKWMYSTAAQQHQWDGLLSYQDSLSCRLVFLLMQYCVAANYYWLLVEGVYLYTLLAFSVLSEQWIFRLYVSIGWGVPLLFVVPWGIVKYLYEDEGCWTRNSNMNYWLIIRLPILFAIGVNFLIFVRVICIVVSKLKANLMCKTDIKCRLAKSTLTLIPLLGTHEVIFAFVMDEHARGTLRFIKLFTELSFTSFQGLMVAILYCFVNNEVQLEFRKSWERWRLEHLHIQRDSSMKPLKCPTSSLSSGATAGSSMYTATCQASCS
Sequence of Glucagon receptor (Homo sapiens) (P47871 whole entry): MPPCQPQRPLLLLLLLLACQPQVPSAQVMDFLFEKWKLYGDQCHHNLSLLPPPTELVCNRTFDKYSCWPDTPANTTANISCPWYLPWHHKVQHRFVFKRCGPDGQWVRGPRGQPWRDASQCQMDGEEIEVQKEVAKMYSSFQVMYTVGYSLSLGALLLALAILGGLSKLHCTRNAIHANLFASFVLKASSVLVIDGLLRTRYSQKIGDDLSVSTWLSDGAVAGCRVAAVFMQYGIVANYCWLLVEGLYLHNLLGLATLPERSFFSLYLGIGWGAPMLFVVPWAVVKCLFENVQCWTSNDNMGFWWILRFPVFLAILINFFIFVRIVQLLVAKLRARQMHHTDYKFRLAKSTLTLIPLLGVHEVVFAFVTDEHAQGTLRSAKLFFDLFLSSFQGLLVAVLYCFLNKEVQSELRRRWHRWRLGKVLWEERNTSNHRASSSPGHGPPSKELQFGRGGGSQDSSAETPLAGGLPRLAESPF

CC(C)C[C@H](NC(=O)[C@H](Cc1ccccc1)NC(=O)[C@H](CCCNC(=N)N)NC(=O)[C@H](CCC(N)=O)NC(=O)[C@H](CC(C)C)NC(=O)C(C)(C)NC(=O)[C@H](C)NC(=O)[C@H](CCC(=O)O)NC(=O)[C@H](CCC(=O)O)NC(=O)[C@H](CCCCNC(=O)COCCOCCNC(=O)COCCOCCNC(=O)CCC(NC(=O)CCCCCCCCCCCCCCCCCCC(=O)O)C(=O)O)NC(=O)[C@H](CC(C)C)NC(=O)[C@H](Cc1ccc(O)cc1)NC(=O)[C@H](CO)NC(=O)[C@@H](NC(=O)[C@H](CC(=O)O)NC(=O)[C@H](CO)NC(=O)[C@@H](NC(=O)[C@H](Cc1ccccc1)NC(=O)[C@@H](NC(=O)CNC(=O)[C@H](CCC(=O)O)NC(=O)C(C)(C)NC(=O)[C@@H](N)Cc1c[nH]cn1)[C@@H](C)O)[C@@H](C)O)C(C)C)C(=O)N[C@@H](CCC(=O)O)C(=O)N[C@@H](Cc1c[nH]cn1)C(=O)N[C@@H](CC(C)C)C(=O)N[C@H](C(N)=O)C(C)C (some centres not stated) (H-H[Aib]EGTFTSDVSYLK([AEEA-AEEA-ξγGlu-C20 diacid])EEA[Aib]LQRFLEHLV-NH2)
Ratio EC50 [1]: 10600
Activity [2]: inactive
Activity [3]: Dose-Dependent Effect
Activity [4]: Active
Activity [5]: inactive
Activity [6]: inactive

SECRETIN [listing 1 of 2 here]
EC50 ([7]; cho-k1): 0.002 nM
EC50 [8]: 2300 nM
Drug degradation [9]: 9%
Drug degradation [10]: 8.6%

SECRETIN [listing 2 of 2 here]
Ratio EC50 [1]: 1 10^-6No_unit

CC(C)C[C@H](NC(=O)[C@H](Cc1ccccc1)NC(=O)[C@H](CCCNC(=N)N)NC(=O)[C@H](CCC(N)=O)NC(=O)[C@H](CC(C)C)NC(=O)C(C)(C)NC(=O)[C@H](C)NC(=O)[C@H](CCC(=O)O)NC(=O)[C@H](CCC(=O)O)NC(=O)[C@H](CCCCNC(=O)COCCOCCNC(=O)COCCOCCNC(=O)CC[C@H](NC(=O)CCCCCCCCCCCCCCCCCCC(=O)O)C(=O)O)NC(=O)[C@H](CC(C)C)NC(=O)[C@H](Cc1ccc(O)cc1)NC(=O)[C@H](CO)NC(=O)[C@@H](NC(=O)[C@H](CC(=O)O)NC(=O)[C@H](CO)NC(=O)[C@@H](NC(=O)[C@H](Cc1ccccc1)NC(=O)[C@@H](NC(=O)CNC(=O)[C@H](CCC(=O)O)NC(=O)C(C)(C)NC(=O)[C@@H](N)Cc1c[nH]cn1)[C@@H](C)O)[C@@H](C)O)C(C)C)C(=O)N[C@@H](CCC(=O)O)C(=O)N[C@@H](Cc1c[nH]cn1)C(=O)N[C@@H](CC(C)C)C(=O)N[C@H](C(N)=O)C(C)C (H-H[Aib]EGTFTSDVSYLK([AEEA-AEEA-γGlu-C20 diacid])EEA[Aib]LQRFLEHLV-NH2)
Cp [11]: Dose-Dependent Effect
Activity [12]: Dose-Dependent Effect
degraded [9]: 0.55%
degraded ([10]; read-out: Drug degradation): 1.4%

CC[C@H](C)[C@H](NC(=O)[C@H](Cc1ccccc1)NC(=O)[C@H](CCC(=O)O)NC(=O)[C@H](CCCCN)NC(=O)[C@H](C)NC(=O)[C@H](C)NC(=O)[C@H](CCC(N)=O)NC(=O)CNC(=O)[C@H](CCC(=O)O)NC(=O)[C@H](CC(C)C)NC(=O)[C@H](Cc1ccc(O)cc1)NC(=O)[C@H](CO)NC(=O)[C@H](CO)NC(=O)[C@@H](NC(=O)[C@H](CC(=O)O)NC(=O)[C@H](CO)NC(=O)[C@@H](NC(=O)[C@H](Cc1ccccc1)NC(=O)[C@@H](NC(=O)CNC(=O)[C@H](CCC(=O)O)NC(=O)[C@H](C)NC(=O)[C@@H](N)Cc1c[nH]cn1)[C@H](C)O)[C@@H](C)O)C(C)C)C(=O)N[C@@H](C)C(=O)N[C@@H](Cc1c[nH]c2ccccc12)C(=O)N[C@@H](CC(C)C)C(=O)N[C@H](C(=O)N[C@@H](CCCCN)C(=O)NCC(=O)N[C@@H](CCCNC(=N)N)C(=O)O)C(C)C
EC50 [7]: 800 nM
degraded [9]: 8.1%
